Results from PMC8213057, “Targeting ALK2: An Open Science Approach to Developing Therapeutics for the Treatment of Diffuse Intrinsic Pontine Glioma” (Journal of Medicinal Chemistry, 2020).

Assays:
[1] = target: T1, SIK2 (Homo sapiens, UniProt Q9H0K1); assay: 375-member kinase panel; type: biochemical; conditions: Run 1, Run 2; for % enzyme activity: 1 μM; for remaining activity at 1 µM: read-out: % enzyme activity, 1 μM
T1 construct: purchased Reaction Biology Corporation

[2] = target: HIPK1 (Homo sapiens, UniProt Q86Z02); conditions: 1 μM; Run 1, Run 2
Sequence of HIPK1 (Q86Z02 whole entry): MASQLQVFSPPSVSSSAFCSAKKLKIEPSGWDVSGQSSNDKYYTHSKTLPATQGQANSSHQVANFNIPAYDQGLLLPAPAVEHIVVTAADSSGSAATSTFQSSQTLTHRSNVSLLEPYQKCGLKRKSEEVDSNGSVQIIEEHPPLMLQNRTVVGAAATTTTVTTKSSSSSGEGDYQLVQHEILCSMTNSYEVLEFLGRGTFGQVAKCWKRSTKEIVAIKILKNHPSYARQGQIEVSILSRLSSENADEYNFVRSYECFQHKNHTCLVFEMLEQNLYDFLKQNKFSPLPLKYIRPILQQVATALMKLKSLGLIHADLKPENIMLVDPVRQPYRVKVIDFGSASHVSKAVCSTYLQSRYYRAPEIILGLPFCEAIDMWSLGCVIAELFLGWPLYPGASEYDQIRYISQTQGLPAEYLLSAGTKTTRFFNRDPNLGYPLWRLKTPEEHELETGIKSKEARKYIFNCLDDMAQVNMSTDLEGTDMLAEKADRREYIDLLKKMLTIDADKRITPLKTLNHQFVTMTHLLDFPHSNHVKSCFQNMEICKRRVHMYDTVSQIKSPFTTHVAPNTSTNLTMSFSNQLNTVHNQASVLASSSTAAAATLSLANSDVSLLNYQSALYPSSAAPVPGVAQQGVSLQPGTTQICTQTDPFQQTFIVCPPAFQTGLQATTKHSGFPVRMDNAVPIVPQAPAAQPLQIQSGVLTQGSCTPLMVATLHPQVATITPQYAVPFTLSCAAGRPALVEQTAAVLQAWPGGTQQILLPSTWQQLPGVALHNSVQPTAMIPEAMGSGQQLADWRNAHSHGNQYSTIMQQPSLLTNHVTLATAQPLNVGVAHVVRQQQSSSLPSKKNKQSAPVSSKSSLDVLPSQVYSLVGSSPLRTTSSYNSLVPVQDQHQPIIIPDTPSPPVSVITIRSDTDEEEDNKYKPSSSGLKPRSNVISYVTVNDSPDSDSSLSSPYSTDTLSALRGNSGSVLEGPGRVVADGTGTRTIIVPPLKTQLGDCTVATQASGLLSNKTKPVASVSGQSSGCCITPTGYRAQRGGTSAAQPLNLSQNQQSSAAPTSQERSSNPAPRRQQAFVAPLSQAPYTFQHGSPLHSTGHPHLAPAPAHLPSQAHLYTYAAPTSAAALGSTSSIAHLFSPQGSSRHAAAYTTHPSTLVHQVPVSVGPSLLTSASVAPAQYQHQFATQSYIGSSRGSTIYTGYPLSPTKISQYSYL

[3] = target: IRR/INSRR (Homo sapiens, UniProt P14616); assay: biochemical; conditions: read-out: % enzyme activity, 1 μM; Run 1, Run 2
[4] = target: CLK4 (Homo sapiens, UniProt Q9HAZ1); assay: biochemical; conditions: read-out: % enzyme activity, 1 μM; Run 1, Run 2
[5] = target: T2, PKG1a (Homo sapiens, UniProt Q13976); conditions: 1 μM; Run 1, Run 2
T2 sequence (Q13976 1-671): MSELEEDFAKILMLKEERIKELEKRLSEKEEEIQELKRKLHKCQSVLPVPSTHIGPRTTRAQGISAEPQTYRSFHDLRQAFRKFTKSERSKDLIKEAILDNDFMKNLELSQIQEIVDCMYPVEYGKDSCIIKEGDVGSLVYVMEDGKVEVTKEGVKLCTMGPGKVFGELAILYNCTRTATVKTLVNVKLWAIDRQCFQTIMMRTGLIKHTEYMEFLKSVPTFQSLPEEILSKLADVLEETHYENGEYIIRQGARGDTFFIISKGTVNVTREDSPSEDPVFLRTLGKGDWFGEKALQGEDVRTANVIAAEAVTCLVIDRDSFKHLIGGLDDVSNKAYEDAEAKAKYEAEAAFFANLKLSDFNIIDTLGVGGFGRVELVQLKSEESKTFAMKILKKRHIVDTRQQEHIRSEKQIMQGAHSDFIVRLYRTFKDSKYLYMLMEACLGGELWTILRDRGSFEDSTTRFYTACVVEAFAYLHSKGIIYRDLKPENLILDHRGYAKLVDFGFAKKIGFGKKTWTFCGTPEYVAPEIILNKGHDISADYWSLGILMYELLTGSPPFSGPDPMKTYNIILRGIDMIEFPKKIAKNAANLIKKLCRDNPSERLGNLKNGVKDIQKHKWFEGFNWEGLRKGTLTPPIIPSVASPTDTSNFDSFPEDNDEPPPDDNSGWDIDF

[6] = target: STK21/CIT (Homo sapiens, UniProt O14578); conditions: 1 μM; Run 1, Run 2
[7] = target: PIM2 (Homo sapiens, UniProt Q9P1W9); assay: biochemical; conditions: read-out: % enzyme activity, 1 μM; Run 1, Run 2
Sequence of PIM2 (Q9P1W9 whole entry): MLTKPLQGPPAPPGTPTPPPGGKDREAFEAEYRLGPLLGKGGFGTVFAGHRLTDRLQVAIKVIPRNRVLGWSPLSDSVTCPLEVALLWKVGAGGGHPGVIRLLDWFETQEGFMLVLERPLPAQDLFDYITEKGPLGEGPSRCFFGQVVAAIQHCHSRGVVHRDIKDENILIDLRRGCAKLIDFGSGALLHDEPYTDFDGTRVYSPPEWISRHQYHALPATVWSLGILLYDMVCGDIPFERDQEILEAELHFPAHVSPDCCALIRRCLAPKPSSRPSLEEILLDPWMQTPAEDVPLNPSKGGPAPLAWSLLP

[8] = target: FGFR2 (Homo sapiens, UniProt P21802); conditions: 1 μM; Run 1, Run 2
[9] = target: LOK/STK10 (Homo sapiens, UniProt O94804); conditions: 1 μM; Run 1, Run 2
Sequence of LOK/STK10 (O94804 whole entry): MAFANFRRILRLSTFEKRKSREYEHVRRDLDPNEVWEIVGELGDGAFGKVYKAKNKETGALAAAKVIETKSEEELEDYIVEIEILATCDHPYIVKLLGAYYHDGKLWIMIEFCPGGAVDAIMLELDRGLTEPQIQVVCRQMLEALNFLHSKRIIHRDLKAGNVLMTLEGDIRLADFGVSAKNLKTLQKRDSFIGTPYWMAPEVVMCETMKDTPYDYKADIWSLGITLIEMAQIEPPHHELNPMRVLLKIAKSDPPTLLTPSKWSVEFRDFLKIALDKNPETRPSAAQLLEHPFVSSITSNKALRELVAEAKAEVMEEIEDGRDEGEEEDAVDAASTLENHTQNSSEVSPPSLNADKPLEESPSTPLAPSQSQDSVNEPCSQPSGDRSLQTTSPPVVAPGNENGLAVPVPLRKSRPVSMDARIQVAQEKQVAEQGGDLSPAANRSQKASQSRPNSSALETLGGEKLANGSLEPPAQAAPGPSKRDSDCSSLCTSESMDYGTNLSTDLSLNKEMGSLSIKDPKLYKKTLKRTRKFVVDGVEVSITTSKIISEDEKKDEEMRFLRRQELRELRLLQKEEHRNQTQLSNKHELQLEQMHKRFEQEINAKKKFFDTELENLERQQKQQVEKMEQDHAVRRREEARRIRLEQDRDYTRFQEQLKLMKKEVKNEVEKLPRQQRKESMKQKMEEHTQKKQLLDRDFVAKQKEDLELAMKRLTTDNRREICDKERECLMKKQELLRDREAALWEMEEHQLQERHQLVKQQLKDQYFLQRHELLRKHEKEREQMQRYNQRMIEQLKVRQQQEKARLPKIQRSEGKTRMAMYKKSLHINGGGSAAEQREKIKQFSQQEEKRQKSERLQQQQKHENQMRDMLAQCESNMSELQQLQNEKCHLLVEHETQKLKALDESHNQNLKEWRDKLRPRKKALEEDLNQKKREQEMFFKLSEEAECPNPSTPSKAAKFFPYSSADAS

[10] = target: CDK3/cyclin E (Homo sapiens, UniProt Q00526); conditions: 1 μM; Run 1, Run 2
Sequence of CDK3/cyclin E (Q00526 whole entry): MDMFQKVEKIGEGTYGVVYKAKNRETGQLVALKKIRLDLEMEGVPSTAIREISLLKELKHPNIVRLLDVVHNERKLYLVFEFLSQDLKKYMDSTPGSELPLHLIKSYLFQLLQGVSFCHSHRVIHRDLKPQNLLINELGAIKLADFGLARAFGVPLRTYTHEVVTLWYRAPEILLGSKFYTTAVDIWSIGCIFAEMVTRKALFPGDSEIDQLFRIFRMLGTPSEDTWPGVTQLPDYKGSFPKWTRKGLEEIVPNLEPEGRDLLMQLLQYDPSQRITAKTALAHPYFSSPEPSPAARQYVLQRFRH
Sequence of CDK3/cyclin E (P24864 whole entry, further chain): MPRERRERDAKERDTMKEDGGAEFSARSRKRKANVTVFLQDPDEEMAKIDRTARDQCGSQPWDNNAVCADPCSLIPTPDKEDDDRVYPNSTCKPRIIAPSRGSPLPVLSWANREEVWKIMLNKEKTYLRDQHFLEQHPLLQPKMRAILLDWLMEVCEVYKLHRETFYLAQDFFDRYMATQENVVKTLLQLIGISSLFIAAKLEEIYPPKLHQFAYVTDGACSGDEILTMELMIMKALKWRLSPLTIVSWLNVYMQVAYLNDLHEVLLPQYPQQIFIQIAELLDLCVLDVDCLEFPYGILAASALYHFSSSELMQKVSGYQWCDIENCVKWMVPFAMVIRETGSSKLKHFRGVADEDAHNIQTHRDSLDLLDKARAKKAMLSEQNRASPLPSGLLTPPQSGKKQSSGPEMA

[11] = target: CK1g1 (Homo sapiens, UniProt Q9HCP0); assay: biochemical; conditions: read-out: % enzyme activity, 1 μM; Run 1, Run 2
[12] = target: MRCKb/CDC42BPB (Homo sapiens, UniProt Q9Y5S2); assay: biochemical; conditions: read-out: % enzyme activity, 1 μM; Run 1, Run 2
[13] = target: FAK/PTK2 (Homo sapiens, UniProt Q05397); conditions: 1 μM; Run 1, Run 2
[14] = target: TRKC (Homo sapiens, UniProt Q16288); conditions: 1 μM; Run 1, Run 2
Sequence of TRKC (Q16288 32-839): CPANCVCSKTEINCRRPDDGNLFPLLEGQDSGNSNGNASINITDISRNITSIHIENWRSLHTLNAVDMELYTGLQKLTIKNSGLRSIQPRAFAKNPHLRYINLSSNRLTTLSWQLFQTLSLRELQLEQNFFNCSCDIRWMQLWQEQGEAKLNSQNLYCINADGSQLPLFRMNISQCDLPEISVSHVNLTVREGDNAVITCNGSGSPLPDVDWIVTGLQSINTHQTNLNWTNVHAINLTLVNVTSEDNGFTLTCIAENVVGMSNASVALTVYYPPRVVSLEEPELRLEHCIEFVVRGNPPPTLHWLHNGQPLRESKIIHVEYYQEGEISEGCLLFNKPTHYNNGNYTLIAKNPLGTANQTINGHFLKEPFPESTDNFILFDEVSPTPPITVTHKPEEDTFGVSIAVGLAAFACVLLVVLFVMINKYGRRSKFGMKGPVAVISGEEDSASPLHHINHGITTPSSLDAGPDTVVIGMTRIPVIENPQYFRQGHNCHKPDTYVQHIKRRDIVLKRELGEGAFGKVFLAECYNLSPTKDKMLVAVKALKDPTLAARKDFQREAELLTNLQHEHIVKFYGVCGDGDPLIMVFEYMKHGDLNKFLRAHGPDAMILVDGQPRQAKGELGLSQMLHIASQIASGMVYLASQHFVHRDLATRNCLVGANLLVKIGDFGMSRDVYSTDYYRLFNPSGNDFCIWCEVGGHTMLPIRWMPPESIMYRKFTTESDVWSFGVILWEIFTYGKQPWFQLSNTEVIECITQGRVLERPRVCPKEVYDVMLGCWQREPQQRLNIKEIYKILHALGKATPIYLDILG

[15] = target: CYP3A4-Midazolam
[16] = target: T3, IRAK4 (Homo sapiens, UniProt Q9NWZ3); assay: biochemical; conditions: read-out: % enzyme activity, 1 μM; Run 1, Run 2
T3 sequence (Q9NWZ3 1-460): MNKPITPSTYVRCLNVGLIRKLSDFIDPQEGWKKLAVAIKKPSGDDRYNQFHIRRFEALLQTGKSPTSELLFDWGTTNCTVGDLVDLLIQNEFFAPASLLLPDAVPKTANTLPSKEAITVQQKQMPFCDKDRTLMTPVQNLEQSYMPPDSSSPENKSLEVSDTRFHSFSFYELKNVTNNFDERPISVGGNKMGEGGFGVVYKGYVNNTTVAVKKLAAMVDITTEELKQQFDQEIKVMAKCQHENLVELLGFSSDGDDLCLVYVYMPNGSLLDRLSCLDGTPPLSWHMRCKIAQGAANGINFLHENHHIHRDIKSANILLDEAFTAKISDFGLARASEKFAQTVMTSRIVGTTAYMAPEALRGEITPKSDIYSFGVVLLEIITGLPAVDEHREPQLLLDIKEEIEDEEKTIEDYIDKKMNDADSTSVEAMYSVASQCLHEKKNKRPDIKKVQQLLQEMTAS

T1 sequence (Q9H0K1 whole entry): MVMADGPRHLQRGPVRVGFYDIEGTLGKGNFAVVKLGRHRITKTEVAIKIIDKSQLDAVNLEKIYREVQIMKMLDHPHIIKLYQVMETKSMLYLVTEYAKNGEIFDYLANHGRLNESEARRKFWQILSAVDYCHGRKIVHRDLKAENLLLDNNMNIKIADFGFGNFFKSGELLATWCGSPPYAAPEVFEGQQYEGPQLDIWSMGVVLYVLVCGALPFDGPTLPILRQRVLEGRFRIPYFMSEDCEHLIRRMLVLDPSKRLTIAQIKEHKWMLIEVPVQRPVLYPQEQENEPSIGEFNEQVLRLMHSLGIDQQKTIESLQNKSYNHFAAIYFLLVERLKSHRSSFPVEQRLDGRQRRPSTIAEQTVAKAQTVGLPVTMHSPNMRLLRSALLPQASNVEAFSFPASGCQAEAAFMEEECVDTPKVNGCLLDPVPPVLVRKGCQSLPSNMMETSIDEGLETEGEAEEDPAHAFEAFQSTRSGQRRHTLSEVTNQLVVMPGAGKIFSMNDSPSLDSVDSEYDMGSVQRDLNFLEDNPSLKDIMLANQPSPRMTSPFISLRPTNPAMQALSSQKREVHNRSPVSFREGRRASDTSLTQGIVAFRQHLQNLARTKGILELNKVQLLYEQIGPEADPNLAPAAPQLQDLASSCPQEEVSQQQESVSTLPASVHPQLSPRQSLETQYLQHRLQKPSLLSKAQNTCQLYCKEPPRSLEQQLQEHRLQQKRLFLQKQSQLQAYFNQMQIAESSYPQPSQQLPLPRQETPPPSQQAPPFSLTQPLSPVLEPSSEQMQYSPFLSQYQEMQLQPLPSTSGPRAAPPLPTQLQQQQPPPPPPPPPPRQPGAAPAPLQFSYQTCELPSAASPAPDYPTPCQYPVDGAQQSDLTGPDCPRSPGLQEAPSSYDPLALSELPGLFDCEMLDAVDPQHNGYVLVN

| Structure (SMILES) | % enzyme activity [1] [%] | remaining activity at 1 µM [1] [%] | % enzyme activity [2] [%] | remaining activity at 1 µM [3] [%] | remaining activity at 1 µM [4] [%] | % enzyme activity [5] [%] | % enzyme activity [6] [%] | remaining activity at 1 µM [7] [%] | % enzyme activity [8] [%] | % enzyme activity [9] [%] | % enzyme activity [10] [%] | remaining activity at 1 µM [11] [%] | remaining activity at 1 µM [12] [%] | % enzyme activity [13] [%] | % enzyme activity [14] [%] | CYP inhibition [15] [µM] | remaining activity at 1 µM [16] [%] |
| --- | --- | --- | --- | --- | --- | --- | --- | --- | --- | --- | --- | --- | --- | --- | --- | --- | --- |
| COc1cc(-c2cncc(-c3ccc(N4CCN(C)CC4)cc3)c2C)cc(F)c1C(N)=O [Compound 26a, 2-Fluoro-6-methoxy-4-(4-methyl-5-(4-(4-methylpiperazin-1-yl)phenyl)pyridin-3-yl)benzamide] | 30.68 | 32 | 102.36 | 108 | 88.9 | 97.81 | 84.42 | 99.2 | 95.46 | 51.51 | 81.63 | 57.7 | 94.6 | 94.56 | 101.44 | > 50 | 78.5 |
| COc1cc(-c2cncc(-c3ccc(N4C[C@@H](C)N(C)[C@@H](C)C4)cc3)c2C)cc(F)c1C(N)=O [Compound 26c, 2-Fluoro-6-methoxy-4-(4-methyl-5-(4-((3R,5S)-3,4,5-trimethylpiperazin-1-yl)phenyl)pyridin-3-yl)benzamide] | 43.50 | 43.9 | 96.64 | 121 | 92.6 | 101.45 | 84.97 | 99.7 | 90.89 | 68.53 | 78.38 | 71.7 | 99.7 | 97.12 | 97.50 | > 50 | 84.9 |
